Results taken from US20170015718A1, “PRO-APOPTOTIC RAS AND RAF PEPTIDES” (UNIVERSITE PIERRE ET MARIE CURIE (PARIS 6), priority 2013, published 2017).

Tests used:
[1] = test system: colon cancer cell line HCT116; test: Apoptosis of colon cancer cell line HCT116; format: cell-based; conditions: 12.5 μM for 72 h
Ras/Raf interaction = test: In vitro competition of Ras/Raf interaction (immunoprecipitation from cell lysates, blot); format: binding, Human; conditions: 1.5 mM of peptides, 30 min, room temperature; FIGS. 2A, 2B
Experimental: FIGS. 2A and 2B show in vitro competition of Ras/Raf interaction. Cells were lysed for 20 min at 4° C. in lysis buffer (50 mM Tris (pH 8), 1% Nonidet P-40, 137 mM NaCl, 1 mM MgCl2, 1 mM CaCl2, 10% glycerol, and protease inhibitor mixture). Lysates (800 μg of protein) were immunoprecipitated with the appropriate Ab overnight at 4° C., and protein A-Sepharose was added for 1 h at 4° C. After washing with 1×TBST (20 mM Tris-HCl (pH 7.5), 150 mM NaCl, 0.05% Tween 20), the Ras/Raf interaction was competed using peptides Mut3DPT-Ras (A) or Mut3DPT-Raf+Mut3DPT-Raf2 (B) at a concentration of 1.5 mM for 30 min at room temperature. After a washing, immunoprecipitates were transferred to nitrocellulose and blotted with the corresponding Ab.
The Ras/Raf interaction was competed using peptides corresponding to the binding site of Ras to Raf and vice versa. Lysates from MDA-MB321 or BC52 cell lines were immunoprecipitated with anti-Ras or anti-Raf Ab, and protein A-Sepharose was added. The Ras/Raf interaction was competed with 1.5 mM of peptides (30 min, room temperature). After washing steps, immunoprecipitates were transferred to nitrocellulose and blotted with the corresponding Ab. Proteins were detected using the ECL system.

[2] = test system: K-Ras mutated cell line SW626; test: Apoptosis by Annexin V-FITC staining, SW626; format: cell-based, Human; conditions: SW626, 100 μM for 24 h; FIG. 3C
Experimental: FIGS. 3A to 3D show effect of peptides on apoptosis. A) MDA-MB231 cell line (mutated K-Ras) was cultured in the presence of the identified peptides at a concentration of 100 μM for 24 h. Apoptosis was detected by Annexin V-FITC staining and analyzed by flow cytometry. B) MDA-MB231 cell line was cultured as above, but to a concentration of 10 or 25 μM peptides. Apoptosis was estimated by annexin V-FITC staining. C) The K-Ras mutated cell line SW626 was cultured and analyzed as in A. D) The wild type K-RAs cell line BC 227 was cultured and analyzed as in A.
Apoptotic cells were detected using Annexin-V (-FITC from BD biosciences) as described by the manufacturer. Briefly, the cells were washed in 1× binding buffer, centrifugated and then resuspended in 200 μl of 1× binding buffer containing Annexin V-FITC (0.1 μg/ml) and PI (0.5 μg/ml). After incubation at room temperature in the dark for 10 min, cells were analyzed by flow cytometry. Data acquired by FACSCalibur (BD biosciences) were analyzed with Cellquest Pro software.

[3] = test system: primary tumor cells of chronic lymphocytic leukemia (CLL); test: Apoptosis of primary tumor cells of chronic lymphocytic leukemia; format: cell-based

| Sequence | apoptosis of HCT116 [1] | competition of the Ras/Raf interaction in vitro (Ras/Raf interaction) | apoptotic effect [2] | effect on CLL B and non-B cells [3] |
| --- | --- | --- | --- | --- |
| VKKKKIKAEIKIHEHKGKKARLDWNTDAAS (chimeric peptide) [Mut3DPT-Raf2] | cause apoptosis | – | – | – |
| VKKKKIKAEIKIKMSKDGKKKKKKSKTKCVIM (chimeric peptide) [Mut3DPT-Ras] | – | able to compete in vitro the interaction Ras/Raf | lower level of apoptosis | marked effect |
